Laboratory results from patent US20220071971A1, “MACROCYCLIC COMPOUNDS AND THEIR USE IN THE TREATMENT OF DISEASE” (NOVARTIS AG, priority 2018, published 2022).

Biological target: T1, delF508-CFTR (Homo sapiens, UniProt P13569, DEL508-508)
T1 construct: expressed in transfected cells
Experiment: Measurement of delF508-CFTR-HRP surface expression in CFBE41o- cells
Assay type: cell-based
Details: for Emax: CFBE41o-, efficacy relative to reference compound 3-(6-(1-(2,2-difluorobenzo[d][1,3]dioxol-5-yl)cyclopropane-1-carboxamido)-3-methylpyridin-2-yl)benzoic acid, read-out: DelF508-CFTR-HRP Amax %; for EC50: HRP-tagged delF508-CFTR surface expression, CFBE41o- cells, 24 h with compound, 10-point curve, highest concentration 10 μM
Description: Measurement of deIF508-CFTR-HRP Surface Expression in CFBE41o-Cells
This assay quantifies the cell surface expressions of the mutant CFTR channel using an extracellular HRP tag.
A cellular assay was developed to measure surface expression of horseradish peroxidase (HRP) tagged delF508-CFTR in the human bronchial epithelial immortalized CFBE41o-cell line (Phuan, P. W., et al, (2014) Molecular Pharmacology 86:42-51). Specifically, the HRP sequence was inserted into the fourth extracellular loop of delF508-CFTR and stably expressed in CFBE41o-cells. Cells were seeded in 384 well plate at a density of 5000 cells/well and incubated at 37° C. for 12 to 24 hours in medium (Gibco MEM #11095, 10% FBS, 10 mM HEPES, […], 200 μg/mL G418, 3 μg/mL Puromycin). The delF508-CFTR-HRP expression was induced with 500 ng/mL doxycycline (Sigma D-9891, dissolved in H2O and sterile filtered) in medium and the cells were incubated at 37° C. for 48 h. Old medium was removed and fresh medium was added containing 500 ng/mL doxycycline and unknown test compound at required test concentration in DMSO, not exceeding 0.5% final DMSO concentration. The highest concentration tested was 10 μM with a 10-point concentration response curve using a 3-fold dilution. After addition of compounds, the cells were incubated for 24 h at 37° C. On the final day, cells were washed four times in PBS containing 1 mM MgCl2 and 0.1 mM CaCl2. HRP-Substrate (SuperSignal ELISA Pico, Fisher #37069) 20 μl/well was added and the luminescence signal was determined (Viewlux, Perkin Elmer). Light was emitted upon addition of exogenous HRP-Substrate only when delF508-CFTR-HRP reached the cell surface and the HRP tag was accessible to the HRP-Substrate (note: HRP-Substrate cannot cross the lipid bilayer to reach delF508-CFTR-HRP misfolded within the cell).
The median activity for the lowest concentration of the compounds on each assay plate was calculated and this value was used to normalize the signal for each well on the respective plate. Three replicates at each concentrations for every compound were run to determine one EC50. The median value was determined and used to calculate compound activities as described below. Effective half maximal values (EC50) were calculated for each compound by performing logistic regression on measured dose-response data points using the equation: […]
where “Y” is the observed activity, “Bottom” is the lowest observed value, “Top” is the highest observed value, and the “Hill coefficient” gives the largest absolute value of the slope. The curve fitting is carried out by a curve fitting program implemented at GNF using Matlab (Mathworks).
The dose response curves also were used to calculate Fold Change (FC) using the equation: […]
Compound efficacy relative to the reference compound 3-(6-(1-(2,2-difluorobenzo[d][1,3]dioxol-5-yl)cyclopropane-1-carboxamido)-3-methylpyridin-2-yl)benzoic acid was determined using the following formula: […]

T1 sequence (P13569 with tags, fused parts or gaps DEL508-508): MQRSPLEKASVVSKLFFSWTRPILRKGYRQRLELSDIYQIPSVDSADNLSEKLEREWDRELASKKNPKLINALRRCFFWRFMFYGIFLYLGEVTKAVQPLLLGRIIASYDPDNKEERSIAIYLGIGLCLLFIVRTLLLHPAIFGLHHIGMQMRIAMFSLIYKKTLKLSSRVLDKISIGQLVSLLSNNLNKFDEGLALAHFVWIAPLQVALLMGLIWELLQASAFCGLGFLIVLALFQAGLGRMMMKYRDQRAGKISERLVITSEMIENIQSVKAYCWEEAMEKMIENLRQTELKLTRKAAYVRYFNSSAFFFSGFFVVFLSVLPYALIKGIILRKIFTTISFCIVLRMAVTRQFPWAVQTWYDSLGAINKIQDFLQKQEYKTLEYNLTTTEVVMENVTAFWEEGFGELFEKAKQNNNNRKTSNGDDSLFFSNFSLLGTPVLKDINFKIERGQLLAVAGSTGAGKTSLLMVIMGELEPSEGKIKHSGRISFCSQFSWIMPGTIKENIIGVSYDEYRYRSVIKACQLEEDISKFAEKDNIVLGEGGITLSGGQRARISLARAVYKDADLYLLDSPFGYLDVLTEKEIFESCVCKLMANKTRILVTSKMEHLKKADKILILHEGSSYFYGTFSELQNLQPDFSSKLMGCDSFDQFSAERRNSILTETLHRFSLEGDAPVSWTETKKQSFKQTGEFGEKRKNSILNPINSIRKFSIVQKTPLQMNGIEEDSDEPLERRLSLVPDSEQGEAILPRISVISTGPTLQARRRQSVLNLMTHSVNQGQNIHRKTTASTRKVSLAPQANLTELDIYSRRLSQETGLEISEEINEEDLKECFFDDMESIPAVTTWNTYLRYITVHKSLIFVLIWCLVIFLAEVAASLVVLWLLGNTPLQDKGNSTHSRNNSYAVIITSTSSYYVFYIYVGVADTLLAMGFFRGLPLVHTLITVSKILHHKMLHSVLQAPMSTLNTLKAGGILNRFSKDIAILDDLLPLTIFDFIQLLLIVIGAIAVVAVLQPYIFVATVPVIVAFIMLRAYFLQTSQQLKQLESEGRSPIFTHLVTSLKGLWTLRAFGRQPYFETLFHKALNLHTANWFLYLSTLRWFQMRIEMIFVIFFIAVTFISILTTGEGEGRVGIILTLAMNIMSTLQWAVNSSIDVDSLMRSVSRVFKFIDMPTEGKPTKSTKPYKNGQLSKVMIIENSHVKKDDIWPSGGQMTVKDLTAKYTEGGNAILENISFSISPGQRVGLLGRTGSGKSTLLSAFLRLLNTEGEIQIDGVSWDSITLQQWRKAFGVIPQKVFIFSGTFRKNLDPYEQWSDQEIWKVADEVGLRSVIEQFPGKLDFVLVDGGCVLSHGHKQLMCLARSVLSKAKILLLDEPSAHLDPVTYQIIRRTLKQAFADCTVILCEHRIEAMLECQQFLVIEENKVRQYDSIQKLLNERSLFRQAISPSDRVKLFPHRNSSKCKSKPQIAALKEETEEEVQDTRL

Row | Emax [%] | EC50 [µM] | SMILES
1 | 764 | 0.439 | O=CCCCN1CCCCCc2ccccc2-c2nc(ccc2C(F)(F)F)NS(=O)(=O)c2cccc1n2 [Compound 73, 4-(4,4-dioxido-2^3-(trifluoromethyl)-4-thia-3,6-diaza-2,5(2,6)-dipyridina-1(1,2)-benzenacycloundecaphane-6-yl)butanal]
2 | 337 | 0.36 | O=S1(=O)Nc2ccc(C(F)(F)F)c(n2)-c2ccccc2CCCCN(CCCO)c2cccc1n2 [Compound 20, 6-(3-hydroxypropyl)-2^3-(trifluoromethyl)-4-thia-3,6-diaza-2,5(2,6)-dipyridina-1(1,2)-benzenacyclodecaphane 4,4-dioxide]
3 |  | 0.303 | O=S1(=O)Nc2ccc(C(F)(F)F)c(n2)-c2ccccc2CCCCCCN(CCCCO)c2cccc1n2 [Compound 16, 6-(4-hydroxybutyl)-2^3-(trifluoromethyl)-4-thia-3,6-diaza-2,5(2,6)-dipyridina-1(1,2)-benzenacyclododecaphane 4,4-dioxide]
4 | 721 | 2.76 | O=C(O)CCCN1CCCCc2ccccc2-c2nc(ccc2Cl)NS(=O)(=O)c2cccc1n2 [Compound 91, 4-(2^3-chloro-4,4-dioxido-4-thia-3,6-diaza-2,5(2,6)-dipyridina-1(1,2)-benzenacyclodecaphane-6-yl)butanoic acid]
5 |  | 0.28 | O=C(O)CCCN1CCCCCCCc2ccccc2-c2nc(ccc2C(F)(F)F)NS(=O)(=O)c2cccc1n2 [Compound 65, 4-(4,4-dioxido-2^3-(trifluoromethyl)-4-thia-3,6-diaza-2,5(2,6)-dipyridina-1(1,2)-benzenacyclotridecaphane-6-yl)butanoic acid]
6 |  | 0.492 | O=C(O)CCCCN1CCCCCc2ccccc2-c2nc(ccc2C(F)(F)F)NS(=O)(=O)c2cccc1n2 [Compound 77, 5-(4,4-dioxido-2^3-(trifluoromethyl)-4-thia-3,6-diaza-2,5(2,6)-dipyridina-1(1,2)-benzenacycloundecaphane-6-yl)pentanoic acid]
7 |  | 1.8 | O=C(O)CCCN1CCCCOc2ccc(F)cc2-c2nc(ccc2C(F)(F)F)NS(=O)(=O)c2cccc1n2 [Compound 63, 4-(1^5-fluoro-4,4-dioxido-2^3-(trifluoromethyl)-11-oxa-4-thia-3,6-diaza-2,5(2,6)-dipyridina-1(1,2)-benzenacycloundecaphane-6-yl)butanoic acid]
8 | 941 | 0.179 | O=S1(=O)Nc2ccc(C(F)(F)F)c(n2)-c2ccccc2CCCCCCN(CCCO)c2cccc1n2 [Compound 21, 6-(3-hydroxypropyl)-2^3-(trifluoromethyl)-4-thia-3,6-diaza-2,5(2,6)-dipyridina-1(1,2)-benzenacyclododecaphane 4,4-dioxide]
9 | 592 | 0.69 | O=S1(=O)Nc2ccc(C(F)(F)F)c(n2)-c2cc(F)ccc2OCCCCN(CCCCO)c2cccc1n2 [Compound 23, 1^5-fluoro-6-(4-hydroxybutyl)-2^3-(trifluoromethyl)-11-oxa-4-thia-3,6-diaza-2,5(2,6)-dipyridina-1(1,2)-benzenacycloundecaphane 4,4-dioxide]
10 | 119 | 3.3 | O=S1(=O)Nc2ccc(C(F)(F)F)c(n2)-c2ccccc2CCC(O)CNc2cccc1n2 (stereo not shown) [Compound 33, 8-hydroxy-2^3-(trifluoromethyl)-4-thia-3,6-diaza-2,5(2,6)-dipyridina-1(1,2)-benzenacyclodecaphane 4,4-dioxide]
11 | 396 | 2.43 | Cc1ccc2nc1-c1ccccc1CCCCCN(CCCC(=O)O)c1cccc(n1)S(=O)(=O)N2 [Compound 72, 4-(2^3-methyl-4,4-dioxido-4-thia-3,6-diaza-2,5(2,6)-dipyridina-1(1,2)-benzenacycloundecaphane-6-yl)butanoic acid]
12 | 443 | 1.27 | O=S1(=O)Nc2ccc(C(F)(F)F)c(n2)-c2cccnc2OCCCCCNc2cccc1n2 [Compound 108, 2^3-(trifluoromethyl)-1^2-oxa-4-thia-3,6-diaza-1(3,2),2,5(2,6)-tripyridinacyclododecaphane 4,4-dioxide]
13 | 178 | 2.22 | O=S1(=O)Nc2ccc(Cl)c(n2)-c2cccnc2NCCCCCNc2cccc1n2 [Compound 105, 2^3-chloro-4-thia-3,6,12-triaza-1(3,2),2,5(2,6)-tripyridinacyclododecaphane 4,4-dioxide]
14 |  | 0.403 | O=C(O)CCN1CCCCCCCc2ccccc2-c2nc(ccc2C(F)(F)F)NS(=O)(=O)c2cccc1n2 [Compound 62, 3-(4,4-dioxido-2^3-(trifluoromethyl)-4-thia-3,6-diaza-2,5(2,6)-dipyridina-1(1,2)-benzenacyclotridecaphane-6-yl)propanoic acid]
15 | 442 | 1.36 | O=S1(=O)Nc2ccc(C(F)(F)F)c(n2)-c2ccccc2COCCCNc2cccc1n2 [Compound 11, 2^3-(trifluoromethyl)-10-oxa-4-thia-3,6-diaza-2,5(2,6)-dipyridina-1(1,2)-benzenacycloundecaphane 4,4-dioxide]
16 |  | 0.224 | O=C(O)CCCN1CCCCCCCCCc2ccccc2-c2nc(ccc2C(F)(F)F)NS(=O)(=O)c2cccc1n2 [Compound 66, 4-(4,4-dioxido-2^3-(trifluoromethyl)-4-thia-3,6-diaza-2,5(2,6)-dipyridina-1(1,2)-benzenacyclopentadecaphane-6-yl)butanoic acid]
17 | 601 | 0.393 | O=S1(=O)Nc2ccc(C(F)(F)F)c(n2)-c2ccccc2CCCCCN(CCN2CCOCC2)c2cccc1n2 [Compound 13, 6-(2-morpholinoethyl)-2^3-(trifluoromethyl)-4-thia-3,6-diaza-2,5(2,6)-dipyridina-1(1,2)-benzenacycloundecaphane 4,4-dioxide]
18 | 792 | 0.431 | CC(C)(CN1CCCCCc2ccc(F)cc2-c2nc(ccc2C(F)(F)F)NS(=O)(=O)c2cccc1n2)C(=O)O [Compound 96, 3-(1^5-fluoro-4,4-dioxido-2^3-(trifluoromethyl)-4-thia-3,6-diaza-2,5(2,6)-dipyridina-1(1,2)-benzenacycloundecaphane-6-yl)-2,2-dimethylpropanoic acid]
19 |  | 0.417 | O=C(O)CCN1CCCCCCCCCc2ccccc2-c2nc(ccc2C(F)(F)F)NS(=O)(=O)c2cccc1n2 [Compound 75, 3-(4,4-dioxido-2^3-(trifluoromethyl)-4-thia-3,6-diaza-2,5(2,6)-dipyridina-1(1,2)-benzenacyclopentadecaphane-6-yl)propanoic acid]
20 |  | 0.219 | O=S1(=O)Nc2ccc(C(F)(F)F)c(n2)-c2ccccc2CCCCCCCCCN(CCCCO)c2cccc1n2 [Compound 42, 6-(4-hydroxybutyl)-2^3-(trifluoromethyl)-4-thia-3,6-diaza-2,5(2,6)-dipyridina-1(1,2)-benzenacyclopentadecaphane 4,4-dioxide]
21 | 932 | 0.267 | O=S1(=O)Nc2ccc(C(F)(F)F)c(n2)-c2ccccc2CCCCCN(CCCCO)c2cccc1n2 [Compound 25, 6-(4-hydroxybutyl)-2^3-(trifluoromethyl)-4-thia-3,6-diaza-2,5(2,6)-dipyridina-1(1,2)-benzenacycloundecaphane 4,4-dioxide]

Row | SMILES | Emax [%] | EC50 [µM]
22 | O=S1(=O)Nc2ccc(C(F)(F)F)c(n2)-c2cccnc2OCCCCCOc2cccc1n2 [Compound 103, 2^3-(trifluoromethyl)-6,12-dioxa-4-thia-3-aza-1(3,2),2,5(2,6)-tripyridinacyclododecaphane 4,4-dioxide] | 197 | 1.38
23 | O=C(O)CCC1CCCCc2ccccc2-c2nc(ccc2C(F)(F)F)NS(=O)(=O)c2cccc(n2)O1 (stereo not shown) [Compound 110, 3-(4,4-dioxido-2^3-(trifluoromethyl)-6-oxa-4-thia-3-aza-2,5(2,6)-dipyridina-1(1,2)-benzenacycloundecaphane-7-yl)propanoic acid] | 170 | 0.477
24 | O=S1(=O)Nc2ccc(C(F)(F)F)c(n2)-c2cccnc2NCCCCNc2cccc1n2 [Compound 5, 2^3-(trifluoromethyl)-4-thia-3,6,11-triaza-1(3,2),2,5(2,6)-tripyridinacycloundecaphane 4,4-dioxide] | 159 | 1.62
